These results are taken from patent US20200000766A1, “COMPOSITIONS AND METHODS FOR AGONIZING THE CB2 RECEPTOR” (priority 2018, published 2020).

Assay [1] deals with transient receptor potential (TRP) channels. The following applies: cited from earlier work.
The target in assay [2] is T1, human CB2 (Homo sapiens, UniProt P34972). Briefly: Cannabinoid Receptor 2 (CB2) activity, calcium FLIPR assay in CHO-K1 cells co-expressing human CB2 and G15. The following applies: FIG. 1 and FIG. 2.
The target in assay [3] is T1, human CB2. Also noted: expressed in transfected cells. As to conditions: cited from earlier work.

Each structure is given as a SMILES string.

T1 sequence (P34972 whole entry): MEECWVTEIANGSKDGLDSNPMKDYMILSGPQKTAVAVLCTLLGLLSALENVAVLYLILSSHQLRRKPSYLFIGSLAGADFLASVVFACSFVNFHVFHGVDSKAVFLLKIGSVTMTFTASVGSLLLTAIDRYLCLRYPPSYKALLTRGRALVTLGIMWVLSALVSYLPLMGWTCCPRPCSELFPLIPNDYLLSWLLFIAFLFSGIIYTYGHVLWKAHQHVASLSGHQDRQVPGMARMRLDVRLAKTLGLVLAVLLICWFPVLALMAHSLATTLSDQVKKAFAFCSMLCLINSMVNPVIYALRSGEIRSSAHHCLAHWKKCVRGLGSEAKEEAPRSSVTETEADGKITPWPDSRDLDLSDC

Consider `CCCCCc1cc(O)c2c(c1)OC(C)(CCC=C(C)C)C=C2` (stereo not shown) [CBC, cannabichromene], for which the “agonism at several TRP channels” value in assay [1] is reported as “known agonist at several transient receptor potential (TRP) channels, albeit somewhat weakly”. Besides, in assay [2], the “agonist potency at the human CB2 receptor compared with other phytocannabinoid agonists (CBD, CBCV)” value is “more potent agonist”. In addition, in assay [2] (two independent experiments), the “potency at human CB2 receptor relative to CBD” value is given as “at least 4 fold”.

For the compound `C=C(C)[C@@H]1CCC(C)=C[C@H]1c1c(O)cc(CCCCC)cc1O` [CBD, cannabidiol], the “agonism at the CB2 receptor (known)” value in assay [3] is “known agonist”.
